Source: patent publication US20190038628A1, “USE OF INHIBITORS OF THE ACTIVITY OR FUNCTION OF PI3K FOR THE TREATMENT OF PRIMARY SJOGREN'S SYNDROME” (Novartis AG, priority 2016, published 2019)
“And” between values parts separate entries of the source, which are not always exact repeats. Equal entries are not always repeated.

Legend:
Murine B cells = test: Mouse B cell proliferation following BCR stimulation; assay type: cell-based; details: Mouse spleen, stimulus Anti-IgM, mean of at least two experiments
Description: Murine B cells were stimulated via BCR by anti-IgM antibody in the presence of titrated amounts of compounds as described in (Julius et al 1984) and proliferation was assessed by incorporation of radioactive ^3H-Thymidine.

[1] = tested on: Human Peripheral Blood Mononuclear Cells (PBMC); test: anti-IgM-Dextran-induced IP-10 production of human PBMC; assay type: cell-based; details: for IP-10 in culture supernatant: individual donors 1-6; for IP-10 in culture supernatant, mean: mean of 6 donors
From the text: For evaluating the effect of compound A on the production of chemokines relevant for the formation of germinal centers, PBMC were isolated from Buffy Coat (collected through Inter-Regionale Blutspende of the Swiss Red Cross) by standard Ficoll gradient centrifugation using Ficoll-Paque plus (GE healthcare #17-1440-03) in Leucosep tubes (Greiner Bio-one #227289). Cells were washed two times with PBS and then resuspended at 2.2×10^6/mL in RPMI 1640 medium supplemented with 10% FBS, Gentamycine (50 ug/ml), Insulin-Transferrin-Selenium and P-Mercaptoethanol (50 uM).
PBMC were dispensed to 48-well plates (Costar #3548) and incubated with pre-diluted compound A resulting in a dilution with a final concentration of 0.3, 1 or 3 uM. Control samples were pretreated with DMSO to obtain a final concentration of 0.03% DMSO. Samples were mixed thoroughly and incubated in a humified incubator at 37° C. for 1 h. Cells were thereafter stimulated by the addition of the TLR9 agonist ODN M362 (Invivogen, #tlrl-m362) at a final concentration of 30 ug/ml or anti-IgM-Dextran (Finabiosolution #0004) at a final concentration of 2 ug/ml. Control samples were left unstimulated. Samples were mixed thoroughly and incubated in a humified incubator at 37° C. for 24 h.
After the stimulation, culture supernatants were harvested and chemokines quantified by Bio-Plex Multiplex immunoassay (CXCL13; Bio Rad #171 BK12MR2) or MSD V-Plex assay (IP-10; Meso Scale Diagnostics) or according to the manufacturer's instructions.

PI3K/Akt pathway = test: pAkt in B cells in stimulated whole blood clinical samples after single oral administration; assay type: in vivo; details: healthy human subjects
Description: For assessment of the in vivo effects of compound A on human B cell activation measured as Akt phosphorylation vlinical samples were prepared from whole blood using a Na-Heparin monovette system.
Whole blood was then incubated with either anti-IgM/IL-4 (7.5 μg/ml of anti-IgM [Southern Biotech] and 7.5 ng/ml of IL-4 [R&D]) or with PBS (unstimulated sample). Incubation was performed using 95 μl of blood (in duplicates) in plate format within 1 h after blood collection. Cultures were mixed well by gently pipetting up and down and incubated at 37° C. (in incubator, 5% CO2). After 30 min whole blood was lysed and fixed with pre-warmed (37° C.) BD PhosFlow-Lyse/Fix buffer (1600 μl) for 20 minutes at 37° C. (water bath) in the dark. The lysed and fixed blood samples were immediately frozen and stored at −80° C. until further processing.
Clinical samples were processed within one week after blood collection. After thawing was completed (at 37° C. water-bath), samples were centrifuged at 502 g (1580 rpm) for 5 min at room temperature. Then pelleted cells were washed with 500 μL ice cold BD Phosflow Perm II buffer, mixed well and kept on ice for 30-35 minutes. […]
Samples were analyzed on the same day. […] Data was calculated as percent inhibition of pAkt relative to the baseline value.

[2] = tested on: BPMC derived from human healthy volunteers; test: Chemokines in supernatant of PBMC from healthy volunteers stimulated with CpG or anti-IgM (summary statement); assay type: cell-based
From the text: Phosphorylated Akt (pAkt) is a downstream effector of PI3K delta activation. 1-{(S)-3-[6-(6-Methoxy-5-trifluoromethyl-pyridin-3-yl)-5,6,7,8-tetrahydro-pyrido[4,3-d]pyrimidin-4-ylamino]-pyrrolidin-1-yl}-propan-1-one or pharmaceutically acceptable salts thereof is a PI3K inhibitor with a selectivity for the PI3K delta isoform (WO2012/004299). […] 1) Chronic B-cell hyperactivity is a consistent and prominent immunoregulatory abnormality in pSS (Hansen A et al, Arthritis Research & Therapy 2007; 9; 218). […] 1-{(S)-3-[6-(6-Methoxy-5-trifluoromethyl-pyridin-3-yl)-5,6,7,8-tetrahydro-pyrido[4,3-d]pyrimidin-4-ylamino]-pyrrolidin-1-yl}-propan-1-one or pharmaceutically acceptable salts thereof inhibits CXCL13 (BCA-1, BLC), but also of CXCL10 (IP-10) and CCL4 (MIP-1beta) in supernatant of BPMC derived from human healthy volunteers stimulated with CpG or anti-IgM. • 3) Characteristic features in pSS include the formation of ectopic lymphoid tissue with germinal center (GC)-like structures. In healthy individuals, GCs are generated from primary B-cell follicles of secondary lymphoid organs during T-cell-dependent immune responses (Hansen A et al, Arthritis Research & Therapy 2007; 9; 218).

Question: Which IC50 (Murine B cells) does the source give for `CCC(=O)N1CC[C@H](Nc2ncnc3c2CN(c2cnc(OC)c(C(F)(F)F)c2)CC3)C1` [Compound A, 1-{(S)-3-[6-(6-Methoxy-5-trifluoromethyl-pyridin-3-yl)-5,6,7,8-tetrahydro-pyrido[4,3-d]pyrimidin-4-ylamino]-pyrrolidin-1-yl}-propan-1-one] here?
Answer: Its IC50 is 8 nM.

Question: What about the “IP-10 in culture supernatant” value ([1]; Compound A 300 nM) of the same compound?
Answer: The value was 79 pg/mL and 32 pg/mL and 37 pg/mL and 1233 pg/mL and 52 pg/mL and 2764 pg/mL.

Question: And the “IP-10 in culture supernatant, mean” value ([1]; Compound A 300 nM)?
Answer: Its value is 699 pg/mL.

Question: And the “IP-10 in culture supernatant” value ([1]; Compound A 1000 nM)?
Answer: Its value is 71 pg/mL and 29 pg/mL and 42 pg/mL and 1010 pg/mL and 52 pg/mL and 1624 pg/mL.

Question: And the “IP-10 in culture supernatant, mean” value ([1]; Compound A 1000 nM)?
Answer: Its value is 471 pg/mL.

Question: And the “IP-10 in culture supernatant” value ([1]; Compound A 3000 nM)?
Answer: Its value is 93 pg/mL and 27 pg/mL and 34 pg/mL and 899 pg/mL and 59 pg/mL and 715 pg/mL.

Question: What about the “IP-10 in culture supernatant, mean” value ([1]; Compound A 3000 nM) of the same compound?
Answer: The value was 305 pg/mL.

Question: And the inhibition at 0.3 µM ([1]; Homo sapiens, PBMC, Compound A 300 nM)?
Answer: Its inhibition at 0.3 µM is 12%.

Question: What about the inhibition at 1 µM ([1]; Homo sapiens, PBMC, Compound A 1000 nM) of the same compound?
Answer: The inhibition at 1 µM was 41%.

Question: What about the inhibition at 3 µM ([1]; Homo sapiens, PBMC, Compound A 3000 nM) of the same compound?
Answer: Its inhibition at 3 µM is 62%.

Question: What about the “pathway inhibition (PI3K/Akt)” value (PI3K/Akt pathway; single administration of 80 mg, over 12 hours) of the same compound?
Answer: The value was “greater than 80%”.

Question: What about the “inhibition of the PI3K/Akt pathway (in words)” value (PI3K/Akt pathway; single oral administration) of the same compound?
Answer: Its value is “dose-, concentration- and time-dependent inhibition”.

Question: And the “CCL4 (MIP-1beta) in supernatant (in words)” value [2]?
Answer: Its value is “inhibits”.

Question: What about the “CXCL10 (IP-10) in supernatant (in words)” value [2] of the same compound?
Answer: The value was “inhibits”.

Question: And the “CXCL13 (BCA-1, BLC) in supernatant (in words)” value [2]?
Answer: The value was “inhibits”.
